# From US20250034171A1, “IMIDAZOPYRIDINE AMIDES AND RELATED COMPOUNDS FOR USE IN THE TREATMENT OF BACTERIAL INFECTIONS” (priority 2021, published 2025)
# Read-outs that look alike come from different tables or passages of the source.
# Tests used:
# [1] = Metabolic stability in liver microsomes (intrinsic clearance); format: in vitro ADME; conditions: microsomes
# In short: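 Compound (typically 1 μM) incubated at 37° C with liver microsomes (0.5 mg/ml protein) of selected species, 1 mM NADPH, 1 mM MgCl2, 0.1 M phosphate pH 7.4, sampled 0–60 min. Parent remaining measured by LC-MS/MS; t1/2 from log-linear slope, then Clint in μl/min/mg protein.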
# [2] = test system: Mycobacterium tuberculosis strain H37Rv; assay: Test 2: MIC determination against M. tuberculosis, resazurin fluorescence; format: cell-based; conditions: Mycobacterium tuberculosis, H37RV, Test 2, M. tuberculosis H37Rv; for MIC90: read-out: Bacterial activity MIC90; for IC50: read-out: Bacterial activity pMIC50 (converted)
# [3] = test system: Salmonella typhimurium Ames II Mixed Strains (TA7001-TA7006) and TA98; assay: Genotoxicity assay (AmesIIb mutagenicity test); format: cell-based; conditions: Salmonella typhimurium; also: key: an AmesIIb score of 1 shows no genotoxicity signals
# In short: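 Ames II fluctuation-type reverse mutation test using Ames II Mixed Strains (equimolar TA7001–TA7006, six base-pair substitutions) plus TA98 (frameshift). Run with and without mammalian metabolic activation across varying compound concentrations; His+ revertants selected on histidine-free medium.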
# [4] = HTChem stab assay (chemical stability in buffer pH2, pH4 and pH7 vs DMSO reference); format: physicochemical; conditions: 72 h, 50 µM; for Chemical stability data, Buffer pH2: pH 2; for Chemical stability data, Buffer pH4: pH 4; for Chemical stability data, Buffer pH7: pH 7
# Method: HTChem stab assay was used to assess the chemical stability of the compounds. 72 h stirring at rt in a buffer pH2, pH4 and pH7 vs a reference DMSO solution. HTChem stab assay is based on the handbook of Pharmaceutical Stress Testing, Predicting Drug Degradation, second edition, authors Baertschi, Alsante, Reed ISBN 978-143980179-6.
# Compounds were plated (1 μl 10 mM DMSO stock in 96 well plate (DMSO control+3 pH conditions), one plate per condition).
# 200 μL of respectively DMSO, Buffer/DMSO mix pH2, Buffer/DMSO mix pH4 and Buffer/DMSO mix pH7 was added.
# After 72 h shaking (300 rpm) at room temperature the samples were analysed by LC/UV/MS. Chromatograms of samples (stability conditions) were compared with the chromatograms of control sample (DMSO). Extra peaks were flagged and identified by mass spectrometry. Sample purity (reference included) were reported.
# • pH3 buffer: For 11; weigh 4.14 g NaH2PO4·H2O, add 600 ml H2O, add H3PO4 to pH3, add H2O to 1000 ml. Filter over 0.2 μm and store at 4° C. Expires after 30 days. • pH6 buffer: For 1 l; weigh 4.14 g NaH2PO4·H2O, add 600 ml H2O, add 1N NaOH to pH6, add H2O to 1000 ml. Filter over […] and store at 4° C. Expires after 30 days.
# • pH2 Buffer/DMSO (StabSolvent): mix 2 parts of HCl 0.1N with 1 part of DMSO • pH4 Buffer/DMSO (StabSolvent): mix 2 parts of buffer pH3 with 1 part of DMSO • pH7 Buffer/DMSO (StabSolvent): mix 2 parts of buffer pH6 with 1 part of DMSO measure pH prior to use.
# Instrument: Acquity UPLC; Column: Acquity HSS T3, 50 mm length×2.1 mm i.d., 1.8 μm particle size. Detectors: PDA (250-350 nm) and SQD2 (90-1500m/z). Mobile phase A: 0.1% Formic acid in water; Mobile phase B: 0.1% Formic acid in Acetonitrile.
# Injection volume: 5 μL, flow rate 0.6 mL/min.
# Data processing including peak integration and identification was done with Waters OpenLynx software.
# M. tuberculosis = conditions: cited from earlier work
# [5] = test system: M. tuberculosis H37Rv inside macrophages; conditions: strain M. tuberculosis H37Rv; cited from earlier work
# [6] = mouse, pH 7.4, Metabolic Stability Half life (mouse, min.)
# [7] = mouse, pH 7.4, mouse liver microsomes, read-out: Metabolic Stability (liver microsome intrinsic clearance) Clearance (mouse, μl/min./mg protein)
# [8] = human, pH 7.4, Metabolic Stability Half life (human, min.)
# [9] = human, pH 7.4, human liver microsomes, read-out: Metabolic Stability (liver microsome intrinsic clearance) Clearance (human, μl/min./mg protein)
SMILES,"half-life at 1 µM [1, 6] [h]","microsomal CLint at 1 µM [1, 7] [µL/min/mg]",MIC90 [2] [µM],IC50 [2] [pM],GeneTox AmesIIb Score [3],"Chemical stability data, Vehicle DMSO [4] [%]","Chemical stability data, Buffer pH2 [4] [%]","Chemical stability data, Buffer pH4 [4] [%]","Chemical stability data, Buffer pH7 [4] [%]","half-life at 1 µM [1, 8] [h]","microsomal CLint at 1 µM [1, 9] [µL/min/mg]",activity against MDR tuberculosis (M. tuberculosis; MDR tuberculosis),activity against replicating and non-replicating bacteria (M. tuberculosis; replicating and non-replicating bacteria),MIC50 [5] [µM]
CCc1nc2nc(C)c(C)cn2c1C(=O)NCc1ccc(-c2nc3n(n2)CCC(C(F)(F)F)C3)cc1 (stereo not drawn) [Compound 9ab],1.66,13.9,0.011,4940,1,100,100,100,100,–,–,–,–,–
CCc1nc2ncc(Cl)cn2c1C(=O)NCc1ccc(-c2nc3n(n2)CCC(C(F)(F)F)C3)cc1 (stereo not drawn) [Compound 10ab],> 3,< 7.7,0.016,5500,1,90,72,64,90,–,–,–,–,–
CCc1nc2nc(N)c(C)cn2c1C(=O)NCc1ccc(-c2nc3n(n2)CCC(C(F)(F)F)C3)cc1 (stereo not drawn) [Compound 12ab],> 3,< 7.7,0.064,23400,1,99,100,100,100,> 3,< 7.7,–,–,–
CCc1nc2ncc(C)cn2c1C(=O)NCc1ccc(-c2cc3n(n2)CCC(C(F)(F)F)C3)cc1 (stereo not drawn) [Compound 20ab],1.08,21.3,0.003,931,1,100,100,100,100,0.637,36.3,–,–,–
CCc1nc2ncc(C)cn2c1C(=O)NCc1ccc(-c2nc3n(n2)CCC(C(F)(F)F)C3)c(F)c1 (stereo not drawn) [Compound 22ab],1.78,13,0.007,2290,1,98,97,97,98,–,–,–,–,–
CCc1nc2ncc(C)cn2c1C(=O)NCc1ccc(-c2nc3n(n2)CCC(C(F)(F)F)C3)c(C)c1 (stereo not drawn) [Compound 23ab],1.58,14.6,0.022,8300,1,100,100,100,100,–,–,–,–,–
CCc1nc2ncc(C)cn2c1C(=O)NCc1ccc(-c2nc3n(n2)CC(C(F)(F)F)CC3)cc1 (stereo not drawn) [Compound 24ab],> 3,< 7.7,0.008,3380,1,100,100,100,100,–,–,–,–,–
CCc1nc2ncc(C)cn2c1C(=O)NCc1ccc(-c2nc3n(n2)CCC(C(F)F)C3)cc1 (stereo not drawn) [Compound 25ab],2.32,9.97,0.014,7460,1,100,100,100,100,–,–,–,–,–
CCc1nc2ncc(C)cn2c1C(=O)NCc1ccc(-c2nc3n(n2)CCC(OC)C3)cc1 (stereo not drawn) [Compound 26ab],2.12,10.9,0.143,49400,1,95,95,95,95,–,–,–,–,–
CCc1nc2ncc(C)cn2c1C(=O)NCc1ccc(-c2nc3n(n2)CCC(O)C3)cc1 (stereo not drawn) [Compound 29ab],> 3,< 7.7,3.19,> 500000,1,100,100,100,100,> 3,< 7.7,–,–,–
CCc1nc2ncc(C)cn2c1C(=O)NCc1ccc(-c2nc3n(n2)CCC(OCCOC)C3)cc1 (stereo not drawn) [Compound 30ab],2.55,9.08,0.332,109000,1,98,98,98,98,–,–,–,–,–
CCc1nc2ncc(C)cn2c1C(=O)NCc1ccc(-c2nc3n(n2)CCCC3)cc1 [Compound 31ab],> 3,< 7.7,0.052,16000,1,100,100,100,100,–,–,–,–,–
CCc1nc2nc(C)ccn2c1C(=O)NCc1ccc(-c2cn3c(n2)CC(C(F)(F)F)CC3)cc1 (stereo not drawn) [Compound 34ab],> 3,< 7.7,0.387,94600,1,94,94,95,93,–,–,–,–,–
CCc1nc2nc(F)ccn2c1C(=O)NCc1ccc(-c2cn3c(n2)CC(C)CC3)cc1 (stereo not drawn) [Compound 35ab],0.498,46.4,0.041,13400,1,100,100,99,98,–,–,–,–,–
CCc1nc2ccc(Cl)cn2c1C(=O)NCc1ccc(N2CCC(c3ccc(OC(F)(F)F)cc3)CC2)cc1 [Compound Q203],–,–,–,–,–,–,–,–,–,–,–,activity against MDR tuberculosis,highly active,0.00028
